In brackets after ≈: the same amount, converted by molar mass. Activity calls are given as the source filed them. The rule behind the calls is not given here.
Assays:
Bacillus spizizenii = format: functional; details: ATCC 6633, 24 h
Salmonella typhi = test: microbe, parasite or virus in culture; details: Salmonella enterica, 24 h
Staphylococcus aureus [1] = format: functional; details: ATCC 25923, 24 h
Saccharomyces cerevisiae = format: functional; details: 24 h
[2] = Aqueous solubility of the compound in pH 7.4 phosphate buffer at 1 mg after 3 hrs by UV absorption analysis; format: physicochemical
Pseudomonas aeruginosa = format: functional; details: ATCC 27853, 24 h
Kregervanrija fluxuum = format: functional; details: ATCC 9888
Micrococcus luteus = format: functional; details: ATCC 4698, 24 h
Cyberlindnera jadinii = format: functional; details: for Activity: ATCC 9950
Aspergillus flavus = format: functional; details: ATCC 204304
Staphylococcus aureus [3] = format: functional; details: N315, 24 h
Proteus vulgaris = format: functional; details: ATCC 13315, 24 h
Escherichia coli [4] = format: functional; details: DH52, 24 h
Shigella dysenteriae = format: functional; details: 24 h
Candida albicans = format: functional; details: for Activity: ATCC 10231
Escherichia coli [5] = format: functional; details: JM109, 24 h

Structure (SMILES) | MIC (Bacillus spizizenii) | MIC (Salmonella typhi) | MIC (Staphylococcus aureus [1]) | MIC (Saccharomyces cerevisiae) | solubility at 3 h [2] | MIC (Pseudomonas aeruginosa) | Activity (Kregervanrija fluxuum) | MIC (Micrococcus luteus) | Activity (Cyberlindnera jadinii) | Activity (Aspergillus flavus) | MIC (Staphylococcus aureus [3]) | MIC (Proteus vulgaris) | MIC (Escherichia coli [4]) | MIC (Shigella dysenteriae) | Activity (Candida albicans) | MIC (Escherichia coli [5]) | MIC (Cyberlindnera jadinii; Williopsis jadinii, ATCC 9950, 24 h) | MIC (Candida albicans; ATCC 10231, 24 h)
COc1cc(C=O)c2c(c1O)CN1CCc3cc4c(cc3C1C2)OCO4 (configuration not stated) | 32 µg/mL (≈ 90.6 µM) | 2 µg/mL (≈ 5.66 µM) | 128 µg/mL (≈ 362 µM) | 1 µg/mL (≈ 2.83 µM) | 79 µg/mL (≈ 224 µM) | 16 µg/mL (≈ 45.3 µM) | inactive | 2 µg/mL (≈ 5.66 µM) | inactive | inactive | 256 µg/mL (≈ 724 µM) | 64 µg/mL (≈ 181 µM) | 256 µg/mL (≈ 724 µM) | 512 µg/mL (≈ 1450 µM) | inactive | 256 µg/mL (≈ 724 µM) |  | 
COc1cc(/C=N/n2cnnc2)c2c(c1OCc1ccc(Cl)cc1Cl)CN1CCc3cc4c(cc3C1C2)OCO4 (configuration not stated) | 32 µg/mL (≈ 55.3 µM) | 32 µg/mL (≈ 55.3 µM) | 16 µg/mL (≈ 27.7 µM) |  |  | 32 µg/mL (≈ 55.3 µM) |  | 128 µg/mL (≈ 221 µM) |  |  | 8 µg/mL (≈ 13.8 µM) | 32 µg/mL (≈ 55.3 µM) | 256 µg/mL (≈ 443 µM) | 512 µg/mL (≈ 885 µM) |  | 16 µg/mL (≈ 27.7 µM) |  | 
COc1cc(/C=N/n2cnnc2)c2c(c1OCc1ccc(Cl)cc1)CN1CCc3cc4c(cc3C1C2)OCO4 (configuration not stated) | 16 µg/mL (≈ 29.4 µM) | 8 µg/mL (≈ 14.7 µM) | 8 µg/mL (≈ 14.7 µM) |  | 613 µg/mL (≈ 1130 µM) | 4 µg/mL (≈ 7.35 µM) |  | 16 µg/mL (≈ 29.4 µM) |  |  | 32 µg/mL (≈ 58.8 µM) | 8 µg/mL (≈ 14.7 µM) | 32 µg/mL (≈ 58.8 µM) | 64 µg/mL (≈ 118 µM) |  | 8 µg/mL (≈ 14.7 µM) | 0.5 µg/mL (≈ 0.919 µM) | 
COc1cc(/C=N/n2cnnc2)c2c(c1OCc1cccc(F)c1)CN1CCc3cc4c(cc3C1C2)OCO4 (configuration not stated) | 512 µg/mL (≈ 971 µM) | 512 µg/mL (≈ 971 µM) | 256 µg/mL (≈ 485 µM) |  |  | 16 µg/mL (≈ 30.3 µM) |  | 32 µg/mL (≈ 60.7 µM) |  |  | 512 µg/mL (≈ 971 µM) | 64 µg/mL (≈ 121 µM) | 256 µg/mL (≈ 485 µM) | 256 µg/mL (≈ 485 µM) |  | > 512 µg/mL |  | 0.5 µg/mL (≈ 0.948 µM)
COc1cc(/C=N/n2cnnc2)c2c(c1OCc1cccc(Cl)c1)CN1CCc3cc4c(cc3C1C2)OCO4 (configuration not stated) | 512 µg/mL (≈ 941 µM) | 256 µg/mL (≈ 471 µM) | 256 µg/mL (≈ 471 µM) |  |  | 512 µg/mL (≈ 941 µM) |  | 512 µg/mL (≈ 941 µM) |  |  | 256 µg/mL (≈ 471 µM) | 512 µg/mL (≈ 941 µM) | 512 µg/mL (≈ 941 µM) | 64 µg/mL (≈ 118 µM) |  | 0.5 µg/mL (≈ 0.919 µM) |  | 
CCCCCCCCCCOc1c(OC)cc(/C=N/n2cnnc2)c2c1CN1CCc3cc4c(cc3C1C2)OCO4 (configuration not stated) | 32 µg/mL (≈ 57.2 µM) | 16 µg/mL (≈ 28.6 µM) | 32 µg/mL (≈ 57.2 µM) |  |  | 128 µg/mL (≈ 229 µM) |  | 64 µg/mL (≈ 114 µM) |  |  | 32 µg/mL (≈ 57.2 µM) | 64 µg/mL (≈ 114 µM) | 64 µg/mL (≈ 114 µM) | 128 µg/mL (≈ 229 µM) |  | 128 µg/mL (≈ 229 µM) |  | 
COc1cc(/C=N/n2cnnc2)c2c(c1OCc1ccccc1Cl)CN1CCc3cc4c(cc3C1C2)OCO4 (configuration not stated) | 32 µg/mL (≈ 58.8 µM) | 1 µg/mL (≈ 1.84 µM) | 16 µg/mL (≈ 29.4 µM) |  |  | 2 µg/mL (≈ 3.68 µM) |  | 256 µg/mL (≈ 471 µM) |  |  | 16 µg/mL (≈ 29.4 µM) | 512 µg/mL (≈ 941 µM) | 64 µg/mL (≈ 118 µM) | 16 µg/mL (≈ 29.4 µM) |  | 4 µg/mL (≈ 7.35 µM) |  | 
COc1cc(/C=N/n2cnnc2)c2c(c1OCc1ccc([N+](=O)[O-])cc1)CN1CCc3cc4c(cc3C1C2)OCO4 (configuration not stated) | 256 µg/mL (≈ 462 µM) | 4 µg/mL (≈ 7.21 µM) | 512 µg/mL (≈ 923 µM) |  |  | 64 µg/mL (≈ 115 µM) |  | 2 µg/mL (≈ 3.61 µM) |  |  | 16 µg/mL (≈ 28.9 µM) | 512 µg/mL (≈ 923 µM) | 512 µg/mL (≈ 923 µM) | 64 µg/mL (≈ 115 µM) |  | 128 µg/mL (≈ 231 µM) |  | 
CCCCCCCCCCCCOc1c(OC)cc(/C=N/n2cnnc2)c2c1CN1CCc3cc4c(cc3C1C2)OCO4 (configuration not stated) | 256 µg/mL (≈ 436 µM) | 256 µg/mL (≈ 436 µM) | 256 µg/mL (≈ 436 µM) |  | 97 µg/mL (≈ 165 µM) | 512 µg/mL (≈ 871 µM) |  | 512 µg/mL (≈ 871 µM) |  |  | 512 µg/mL (≈ 871 µM) | 256 µg/mL (≈ 436 µM) | 256 µg/mL (≈ 436 µM) | 512 µg/mL (≈ 871 µM) |  | 512 µg/mL (≈ 871 µM) |  | 
CCCCCCCCOc1c(OC)cc(/C=N/n2cnnc2)c2c1CN1CCc3cc4c(cc3C1C2)OCO4 (configuration not stated) | 16 µg/mL (≈ 30.1 µM) | 16 µg/mL (≈ 30.1 µM) | 8 µg/mL (≈ 15 µM) |  |  | 512 µg/mL (≈ 963 µM) |  | 16 µg/mL (≈ 30.1 µM) |  |  | 16 µg/mL (≈ 30.1 µM) | 16 µg/mL (≈ 30.1 µM) | 16 µg/mL (≈ 30.1 µM) | 64 µg/mL (≈ 120 µM) |  | 32 µg/mL (≈ 60.2 µM) |  | 
CCOc1c(OC)cc(/C=N/n2cnnc2)c2c1CN1CCc3cc4c(cc3C1C2)OCO4 (configuration not stated) | 128 µg/mL (≈ 286 µM) | 256 µg/mL (≈ 572 µM) | 256 µg/mL (≈ 572 µM) |  |  | 256 µg/mL (≈ 572 µM) |  | 16 µg/mL (≈ 35.8 µM) |  |  | 8 µg/mL (≈ 17.9 µM) | 32 µg/mL (≈ 71.5 µM) | 512 µg/mL (≈ 1140 µM) | 512 µg/mL (≈ 1140 µM) |  | 256 µg/mL (≈ 572 µM) |  | 
COc1cc(/C=N/n2cnnc2)c2c(c1O)CN1CCc3cc4c(cc3C1C2)OCO4 (configuration not stated) | 512 µg/mL (≈ 1220 µM) | 128 µg/mL (≈ 305 µM) | 64 µg/mL (≈ 153 µM) |  | 392 µg/mL (≈ 935 µM) | 128 µg/mL (≈ 305 µM) | inactive | 1 µg/mL (≈ 2.38 µM) | inactive | inactive | 16 µg/mL (≈ 38.1 µM) | 64 µg/mL (≈ 153 µM) | 128 µg/mL (≈ 305 µM) | 256 µg/mL (≈ 610 µM) | inactive | 128 µg/mL (≈ 305 µM) |  | 
CCCCOc1c(OC)cc(/C=N/n2cnnc2)c2c1CN1CCc3cc4c(cc3C1C2)OCO4 (configuration not stated) | 16 µg/mL (≈ 33.6 µM) | 16 µg/mL (≈ 33.6 µM) | 16 µg/mL (≈ 33.6 µM) |  | 121 µg/mL (≈ 254 µM) | 16 µg/mL (≈ 33.6 µM) |  | 1 µg/mL (≈ 2.1 µM) |  |  | 8 µg/mL (≈ 16.8 µM) | 16 µg/mL (≈ 33.6 µM) | 32 µg/mL (≈ 67.3 µM) | 8 µg/mL (≈ 16.8 µM) |  | 16 µg/mL (≈ 33.6 µM) |  | 
COc1cc(/C=N/n2cnnc2)c2c(c1OCc1ccc(F)cc1)CN1CCc3cc4c(cc3C1C2)OCO4 (configuration not stated) | 32 µg/mL (≈ 60.7 µM) | 4 µg/mL (≈ 7.58 µM) | 32 µg/mL (≈ 60.7 µM) |  | 185 µg/mL (≈ 351 µM) | 8 µg/mL (≈ 15.2 µM) |  | 2 µg/mL (≈ 3.79 µM) |  |  | 8 µg/mL (≈ 15.2 µM) | 128 µg/mL (≈ 243 µM) | 16 µg/mL (≈ 30.3 µM) | 16 µg/mL (≈ 30.3 µM) |  | 32 µg/mL (≈ 60.7 µM) |  | 
